Reference: patent publication US20030162834A1, “Natural physiologically active material effective on fish diseases and fish food containing the material” (priority 1998, published 2003)

Assays:
[1] = Trial 9: tolerance of tiger puffer to immersion in seawater containing octanoic acid; type: in vivo
Source text: Each group, i.e., 130 g of tiger puffer, was immersed in 2-liter seawater containing octanoic acid at 100 ppm, 200 ppm and 400 ppm, followed by observation.

[2] = system: parasites (Heterobothrium okamotoi, Cryptocaryon irritans); assay: Trial 1: overall statements on efficacy of fatty acids against parasites; type: cell-based; conditions: Trial 1 summary; C12 at a low concentration, not the same condition
Description: (§1) Fatty acids having carbon number C2, C4 and C6-C10 were each dissolved in seawater at 1 mM concentration, and oncomiracidia of Heterobothrium okamotoi and larvae attaching to the gill were immersed in the seawater solutions. After 2 hours from the start of immersion, the efficacy of the fatty acids was investigated by counting the number of dead oncomiracidia and the number of larvae dropping down from the gill. More than 30 individuals of parasites were transferred to each group.
For Cryptocaryon irritans, fatty acids having carbon number C2, C4 and C6-C10 were each dissolved in seawater at 0.5 mM concentration, and theronts of Cryptocaryon irritans were immersed in the seawater solutions. After 1 hour from the start of immersion, the efficacy of the fatty acids was investigated by counting the number of dead theronts. More than 200 individuals of parasites were transferred to each group.
(§2) For any of the groups, the trial was made under condition of 20 degrees centigrade.

Heterobothrium okamotoi [3] = assay: Trial 1: in vitro immersion of oncomiracidia and gill-attached larvae in fatty acid seawater solutions; type: cell-based; conditions: 1 mM in seawater, 20 degrees centigrade
Description: as §1, §2

Cryptocaryon irritans = assay: Trial 8: octanoic acid versus its monoglyceride and triglyceride, oral, red sea bream; type: in vivo; conditions: diet amount equal to 17.5 mM octanoic acid residues (2.5 g acid, 3.8 g monoglyceride, 2.7 g triglyceride per kg)
Source text: Fish tested: Red sea bream weighing approximately 15.8 g in average.
Trial groups: Four groups, i.e., an octanoic-acid added group in which fish were fed diets added with octanoic acid, a monoglyceride added group in which fish were fed diets added with monoglyceride of octanoic acid, a triglyceride added group in which fish were fed diets added with triglyceride of octanoic acid, and a control group in which fish were fed diets added with neither octanoic acid nor glycerides. The feeding rate was 3% of fish weight/day for each group.
Trial diets: The diets added with octanoic acid were prepared by spraying 2.5 g (17.5 mM with respect to the diet weight) of octanoic acid to 1 kg of commercially available pellets for red sea bream. […]. Specifically, the diets added with monoglyceride and triglyceride were prepared respectively by spraying 3.8 g of monoglyceride and 2.7 g of triglyceride to 1 kg of the commercially available pellets for red sea bream. The control group fish were fed the commercially available pellets for red sea bream.
Challenge trial: Each 10 pieces of fish from among a shoal of fish, in which no diseases such as Cryptocaryon irritans infection were found, were put in a 100-liter water tank, and were fed the respective trial diets. After 5 days, approximately 2000 individuals of theronts of Cryptocaryon irritans were put into each water tank to infect the fish while water flow was stopped for 1 hour. Then, bleeding was continued for 31 days while feeding the respective trial diets. During the trial period, the water temperature was 24+−1 degrees centigrade and the water was exchanged at 20 cycles/day.
Evaluation was made by sampling 5 pieces of fish from each group after 18 and 31 days from the start of the challenge, and comparing the number of the parasites attaching to the gill of each fish.

Heteraxine heterocerca = assay: Trial 5: oral octanoic acid, field trial on amberjack; type: in vivo; conditions: 8 g octanoic acid per 1 kg pellets, 9 days
Description: (§3) Fish tested: Amberjack weighing approximately 117 g in average.
(§4) Trial groups: Two groups, i.e., an octanoic-acid added group in which fish were fed diets added with octanoic acid, and a control group in which fish were fed diets not added with octanoic acid. The feeding rate was 3% of fish weight/day for each group.
(§5) Trial diets: The diets added with octanoic acid were prepared by spraying 8 g of octanoic acid to 1 kg of commercially available pellets for amberjack. The control group fish were fed the commercially available pellets for amberjack.
(§6) Trial: The trial was conducted using off-shore net pens of 10×10×9 m placed in the field sea. Each 15000 pieces of fish for each group were treated with a parasiticide containing commercially available hydrogen peroxide as a main ingredient, and then put in each net pen. At this time, it was confirmed that Heteraxine heterocerca parasitizing to the gill and Benedenia seriolae parasitizing on the body surface were eliminated, by investigating 20 pieces of fish for each group. It was also simultaneously confirmed that blood flukes (Pradeontacylix) were present in the fish, by investigating the presence of eggs in the gill filaments. Then, bleeding was continued for 9 days while feeding the trial diets. The water temperature during the trial period was in the range of 18.5-20.0 degrees centigrade.
(§7) Evaluation was made by sampling 20 pieces of fish from each group after 9 days from the start of the bleeding, and counting and comparing the number of Heteraxine heterocerca in the gill of each sampled fish, the number of Benedenia seriolae on the body surface, and the number of eggs of blood flukes (Paradeontacylix) in the gill filaments.

[4] = system: blood flukes (Paradeontacylix); assay: as above; type: in vivo; conditions: 8 g octanoic acid per 1 kg pellets, 9 days
Description: as §3, §4, §5, §6, §7

Benedenia seriolae = assay: as above; type: in vivo; conditions: 8 g octanoic acid per 1 kg pellets, 9 days
Description: as §3, §4, §5, §6, §7

Heterobothrium okamotoi [5] = assay: Trial 3: oral octanoic acid, Heterobothrium okamotoi challenge trial on tiger puffer; type: in vivo; conditions: 2.5 g octanoic acid per 1 kg pellets
Description: Fish tested: Tiger puffer weighing approximately 133.6 g in average.
Trial groups: Two groups, i.e., an octanoic-acid added group in which fish were fed diets added with octanoic acid, and a control group in which fish were fed diets not added with octanoic acid. The feeding rate was 1% of fish weight/day for each group.
Trial diets: The diets added with octanoic acid were prepared by spraying 2.5 g of octanoic acid to 1 kg of commercially available pellets for tiger puffer. The control group fish were fed the commercially available pellets for tiger puffer.
Challenge trial: Each 12 pieces of fish (normal fish) from among a shoal of fish, in which no diseases such as Heterobothrium okamotoi infection were found, were put in a 100-liter water tank, and were fed the respective trial diets. After 7 days, 6 pieces of fish (infected fish), which had been infected in advance with approximately 100 individuals of Heterobothrium okamotoi, were added to each trial group. Then, bleeding was continued for 73 days while feeding the trial diets. In this trial, the parasites Heterobothrium okamotoi in the infected fish were in the stage of adult. After 30 days from adding the infected fish, 4 pieces of normal fish were sampled from each group, and the number of parasites attaching to the gill was counted. During the trial period, the water temperature was in the range of 16.5-20.9 degrees centigrade and the water was exchanged at 20 cycles/day.
Evaluation was made by comparing mortality of the fish in respective groups during the trial period, and by counting the number of parasites attaching to the gill of the infected fish in each group for investigation of the remedy efficacy and the infection preventable efficacy.

**Q.** With CCCCCCCC(=O)O [octanoic acid] as the compound, how does the “condition when returned to seawater” value ([1]; after immersion at 100 ppm) read?
**A.** no abnormality

**Q.** And the “time to restore to a normal condition after return to seawater” value ([1]; after immersion at 200 ppm)?
**A.** approximately 30 minutes

**Q.** What about the “time to restore to a normal condition after return to seawater” value ([1]; after immersion at 400 ppm, almost dying condition) of the same compound?
**A.** approximately 60 minutes

**Q.** And the “observation of fish after 60 minutes” value ([1]; immersion, 100 ppm octanoic acid in seawater)?
**A.** a swimming activity of the fish was slightly lowered, but no abnormality was found in the fish

**Q.** What about the “time at which fish began to lie down” value ([1]; immersion, 200 ppm) of the same compound?
**A.** 60 min

**Q.** What about the “time until swimming activity was apparently lowered” value ([1]; immersion, 200 ppm) of the same compound?
**A.** 30 min

**Q.** What about the “time at which fish became almost dying” value ([1]; immersion, 400 ppm) of the same compound?
**A.** 9 min

**Q.** What about the “time at which fish began to lie down” value ([1]; immersion, 400 ppm) of the same compound?
**A.** 3 min

**Q.** And the “observation of fish returned to seawater” value ([1]; observed for 7 days after immersion)?
**A.** no abnormality was found

**Q.** What about the efficacy against parasites [2] of the same compound?
**A.** most effective

**Q.** What about the “emergence of dead oncomiracidia” value (Heterobothrium okamotoi [3]) of the same compound?
**A.** emerged earliest

**Q.** What about the “larvae dropping down from the gill (drop-down rate)” value (Heterobothrium okamotoi [3]; 2 hours) of the same compound?
**A.** highest drop-down rate

**Q.** And the “number of parasites attaching to the gill after 18 and 31 days, versus control” value (Cryptocaryon irritans)?
**A.** apparently fewer

**Q.** And the “number of Heteraxine heterocerca in the gill, versus control” value (Heteraxine heterocerca)?
**A.** apparently fewer

**Q.** What about the “eggs of blood flukes in the gill filaments” value [4] of the same compound?
**A.** no eggs of blood flukes were observed

**Q.** And the “number of Benedenia seriolae on the body surface, versus control” value (Benedenia seriolae)?
**A.** no appreciable difference

**Q.** What about the “number of parasites attaching to the normal fish after 30 days, versus control” value (Heterobothrium okamotoi [5]) of the same compound?
**A.** apparently reduced

**Q.** And the “number of parasites (adults and larvae) attaching to infected fish survived at the end of the trial, versus control” value (Heterobothrium okamotoi [5]; 73 days)?
**A.** apparently reduced

**Q.** And the “numbers of parasites in normal fish survived at the end and fish died during the trial” value (Heterobothrium okamotoi [5]; 73 days)?
**A.** apparently reduced

**Q.** What about the “adults attaching to each survived infected fish at the end of the trial” value (Heterobothrium okamotoi [5]; 73 days, approximately 100 at the start) of the same compound?
**A.** approximately 27 individuals

**Q.** What about the “survival rate of the infected fish at the end of the trial” value (Heterobothrium okamotoi [5]; 73 days, control 16.7%) of the same compound?
**A.** 66.7%

**Q.** What about the “survival rate of the normal fish” value (Heterobothrium okamotoi [5]; cohabitation with infected fish 73 days, control 0%) of the same compound?
**A.** 75%
